Experimental findings from patent US20190350930A1, “COMPOSITION FOR CONTROLLING GASTROESOPHAGEAL REFLUX DISEASES” (bitop AG, priority 2016, published 2019) are described below.

The structures appear in SMILES notation.

This assay concerns mucus-forming epithelial cells TR146. Put plainly: in vitro cell culture model: TR146 cells damaged with acidic HCl/pepsin solution, then incubated with ectoine; cell count by neutral red cytotoxicity assay. Format: cell-based. The conditions noted are these: FIG. 1. The protocol: The cells were treated with acid solutions containing the digestive enzyme pepsin and following this treated with ectoine. TR146 cells were added to a microplate having 96 wells, with the cells being allowed to grow until the surface was almost completely covered. The cells were then treated for 10 min. with a diluted acidic HCl solution together with pepsin in a cell culture medium. The concentration of pepsin was 2 U/ml. Following this, the cells were washed with PBS (phosphate buffered saline) and incubated overnight either with ectoine or for control purposes with pure solvent. After incubation, a cell count determination was carried out using a […] for which a cyanine-based nucleic acid dye was employed. The assay is based on the fact that the plasma membrane of damaged or dead cells becomes permeable to the dye and the dye binds to the DNA of the cell, which is associated with a corresponding increase in fluorescence. For […] control, cells were treated with 0.1% sodium dodecyl sulfate (SDS) solution as denaturing agent. Other cells (full medium) were not treated with acid/pepsin.

`CC1=NCC[C@@H](C(=O)O)N1` (stereo in doubt) [ectoine, 2-methyl-1,4,5,6-tetrahydropyrimidine-4-carboxylic acid]: for the setting “50 mM ectoine, overnight incubation after 10 min acidic HCl solution with pepsin 2 U/ml”, the “effect with respect to the regeneration of the cells” value is given as “excellent effect”. For the same molecule, the cell viability result (cells treated with ectoine (50 mM) after acid/pepsin, compared with full-medium cells not treated with acid/pepsin) was “comparable to that of cells that were not subjected to a treatment with an acidic pepsin solution”.
